From ChEMBL document CHEMBL3421538, “Structure-activity relationships and molecular studies of novel arylpiperazinylalkyl purine-2,4-diones and purine-2,4,8-triones with antidepressant and anxiolytic-like activity” (Eur J Med Chem, 2015)

Columns and labels:
[1] = target: T1, 5-hydroxytryptamine receptor 1A (Rattus norvegicus, UniProt P19327); experiment: Displacement of [3H]8-OH-DPAT from rat hippocampus 5-HT1A receptor incubated for 20 mins by microbeta plate reader based method
T1 sequence (P19327 whole entry): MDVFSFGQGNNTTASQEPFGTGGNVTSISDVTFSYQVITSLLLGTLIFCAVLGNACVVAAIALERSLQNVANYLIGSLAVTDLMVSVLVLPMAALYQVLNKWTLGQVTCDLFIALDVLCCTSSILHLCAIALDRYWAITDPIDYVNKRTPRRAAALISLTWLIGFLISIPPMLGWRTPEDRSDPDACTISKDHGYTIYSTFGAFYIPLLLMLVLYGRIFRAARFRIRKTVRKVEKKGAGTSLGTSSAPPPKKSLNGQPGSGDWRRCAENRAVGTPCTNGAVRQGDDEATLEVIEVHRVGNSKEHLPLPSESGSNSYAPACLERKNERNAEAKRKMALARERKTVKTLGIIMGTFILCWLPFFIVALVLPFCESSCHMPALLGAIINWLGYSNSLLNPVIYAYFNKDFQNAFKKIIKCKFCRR

[2] = target: 5-hydroxytryptamine receptor 7 (Homo sapiens, UniProt P34969); experiment: Displacement of [3H]LSD from human recombinant 5-HT7 receptor expressed in CHOK1 cells incubated for 60 mins by microbeta plate reader based method; assay type: cell-based, CHO-K1
[3] = target: D(2) dopamine receptor (Homo sapiens, UniProt P14416); experiment: Displacement of [3H]N-methylspiperone from human recombinant dopamine D2 receptor expressed in CHOK1 cells incubated for 60 mins by microbeta plate reader based method; assay type: cell-based, CHO-K1
[4] = target: D(3) dopamine receptor (Homo sapiens) (UniProt P35462); experiment: Displacement of [3H]N-methylspiperone from dopamine D3 receptor (unknown origin) assessed as total radioligand binding at 1 uM incubated for 60 mins by microbeta plate reader based method
[5] = target: T2, 5-hydroxytryptamine receptor 6 (Homo sapiens, UniProt P50406); experiment: Displacement of [3H]LSD from human recombinant 5-HT6 receptor expressed in HEK293 cells incubated for 60 mins by microbeta plate reader based method; assay type: cell-based
[6] = target: D(3) dopamine receptor (Homo sapiens) (UniProt P35462); experiment: Displacement of [3H]N-methylspiperone from dopamine D3 receptor (unknown origin) assessed as total radioligand binding at 1.66 x 10^-7 M incubated for 60 mins by microbeta plate reader based method
[7] = target: T3, 5-hydroxytryptamine receptor 1A (Rattus norvegicus) (UniProt P19327); experiment: Displacement of [3H]8-OH-DPAT from rat hippocampus 5-HT1A receptor assessed as total radioligand binding at 1.66 x 10^-7 M incubated for 20 mins by microbeta plate reader based method
T3 sequence (whole entry): T1 sequence (P19327 whole entry)

[8] = target: T2, 5-hydroxytryptamine receptor 6; experiment: Displacement of [3H]LSD from human recombinant 5-HT6 receptor expressed in HEK293 cells assessed as total radioligand binding at 1.66 x 10^-7 M incubated for 60 mins by microbeta plate reader based method; assay type: cell-based
[9] = target: T3, 5-hydroxytryptamine receptor 1A (Rattus norvegicus); experiment: Displacement of [3H]8-OH-DPAT from rat hippocampus 5-HT1A receptor assessed as total radioligand binding at 1 uM incubated for 20 mins by microbeta plate reader based method
[10] = target: T2, 5-hydroxytryptamine receptor 6; experiment: Displacement of [3H]LSD from human recombinant 5-HT6 receptor expressed in HEK293 cells assessed as total radioligand binding at 1 uM incubated for 60 mins by microbeta plate reader based method; assay type: cell-based
[11] = Selectivity index, ratio of Ki for rat hippocampus 5-HT1A receptor to Ki for human recombinant 5-HT7 receptor
[12] = tested on: Mus musculus; experiment: Anxiolytic-like activity in Swiss mouse assessed as increase in number of punished crossings measured during 60 seconds period at 2.5 mg/kg, ip by four-plate test; assay type: functional; conditions: route intraperitoneal
[13] = tested on: Mus musculus; experiment: Anxiolytic-like activity in Swiss mouse assessed as increase in number of punished crossings measured during 60 seconds period at 5 mg/kg, ip by four-plate test; assay type: functional; conditions: route intraperitoneal

T2 sequence (P50406 whole entry): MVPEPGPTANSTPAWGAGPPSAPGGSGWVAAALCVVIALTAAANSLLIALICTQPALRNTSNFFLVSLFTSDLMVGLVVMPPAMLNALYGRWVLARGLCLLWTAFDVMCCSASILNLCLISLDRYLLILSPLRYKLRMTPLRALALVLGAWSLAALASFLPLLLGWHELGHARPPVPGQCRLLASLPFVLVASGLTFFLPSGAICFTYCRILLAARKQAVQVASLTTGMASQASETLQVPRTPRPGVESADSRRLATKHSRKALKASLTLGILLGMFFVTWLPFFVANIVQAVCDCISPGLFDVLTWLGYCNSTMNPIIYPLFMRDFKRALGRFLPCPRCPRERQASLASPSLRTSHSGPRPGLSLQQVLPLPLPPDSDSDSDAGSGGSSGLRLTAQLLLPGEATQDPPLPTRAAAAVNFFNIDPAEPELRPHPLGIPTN
Chain of 5-hydroxytryptamine receptor 7 (P34969 whole entry): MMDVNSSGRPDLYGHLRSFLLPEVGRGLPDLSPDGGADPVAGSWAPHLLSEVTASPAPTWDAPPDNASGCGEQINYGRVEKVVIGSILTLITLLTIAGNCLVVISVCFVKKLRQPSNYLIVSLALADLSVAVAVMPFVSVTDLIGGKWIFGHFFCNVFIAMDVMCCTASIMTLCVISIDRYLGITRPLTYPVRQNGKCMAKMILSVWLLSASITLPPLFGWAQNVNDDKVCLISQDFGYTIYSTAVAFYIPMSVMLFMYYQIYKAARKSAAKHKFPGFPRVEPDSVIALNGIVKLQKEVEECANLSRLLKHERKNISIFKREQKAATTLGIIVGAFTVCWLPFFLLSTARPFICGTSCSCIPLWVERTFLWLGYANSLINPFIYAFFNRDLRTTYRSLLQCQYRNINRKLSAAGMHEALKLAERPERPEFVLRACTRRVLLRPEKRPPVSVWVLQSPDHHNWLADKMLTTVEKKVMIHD
Chain of D(3) dopamine receptor (Homo sapiens) (P35462 whole entry): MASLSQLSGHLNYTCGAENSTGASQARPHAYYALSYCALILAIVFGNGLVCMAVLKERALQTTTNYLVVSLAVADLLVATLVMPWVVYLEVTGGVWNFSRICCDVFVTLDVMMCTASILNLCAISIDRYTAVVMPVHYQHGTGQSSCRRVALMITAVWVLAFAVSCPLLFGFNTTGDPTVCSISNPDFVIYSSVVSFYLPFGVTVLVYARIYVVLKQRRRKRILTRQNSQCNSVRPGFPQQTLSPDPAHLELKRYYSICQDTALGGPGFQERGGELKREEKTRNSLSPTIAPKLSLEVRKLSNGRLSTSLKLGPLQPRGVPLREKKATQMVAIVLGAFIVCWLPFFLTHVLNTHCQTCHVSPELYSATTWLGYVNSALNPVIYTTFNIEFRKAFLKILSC
Chain of D(2) dopamine receptor (P14416 whole entry): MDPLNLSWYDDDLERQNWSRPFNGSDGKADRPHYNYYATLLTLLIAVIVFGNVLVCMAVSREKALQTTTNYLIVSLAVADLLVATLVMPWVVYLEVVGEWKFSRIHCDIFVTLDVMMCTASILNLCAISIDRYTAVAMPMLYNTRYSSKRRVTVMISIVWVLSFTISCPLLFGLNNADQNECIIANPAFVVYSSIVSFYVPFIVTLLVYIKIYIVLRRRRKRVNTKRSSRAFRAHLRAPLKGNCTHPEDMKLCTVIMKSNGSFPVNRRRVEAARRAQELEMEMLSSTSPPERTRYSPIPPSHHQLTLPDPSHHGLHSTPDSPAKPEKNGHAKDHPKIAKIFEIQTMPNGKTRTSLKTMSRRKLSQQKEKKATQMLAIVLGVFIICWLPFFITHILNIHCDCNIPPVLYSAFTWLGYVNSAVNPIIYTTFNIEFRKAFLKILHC

Cn1c(=O)c2c(nc3n(CCCCCN4CCN(c5ccc(Cl)cc5)CC4)c(=O)ccn23)n(C)c1=O
Ki [1]: 80 nM
Ki [2]: > 1000 nM
Ki [3]: 215 nM
Activity [4]: 92%
Ki [5]: 839 nM
Activity [6]: 99%

Cn1c(=O)c2c(nc3n(CCCCCN4CCN(c5ccc(Cl)c(Cl)c5)CC4)ccn23)n(C)c1=O
Activity [7]: 78%
Activity [8]: 90%
Activity [4]: 16%
Activity [9]: 3%
Activity [10]: 62%
Activity [6]: 67%

Cc1cccc(N2CCN(CCCCn3c(=O)ccn4c5c(=O)n(C)c(=O)n(C)c5nc34)CC2)c1C
Activity [7]: 85%
Activity [8]: 100%
Activity [4]: 73%
Activity [9]: 42%
Activity [10]: 94%
Activity [6]: 100%

Cc1cn2c3c(=O)n(C)c(=O)n(C)c3nc2n1CCCCN1CCN(c2ccc(Cl)cc2)CC1
Ki [1]: 38 nM
Ki [2]: 361 nM
Ki [3]: 123 nM
Ki [5]: 1460 nM
Ratio Ki [11]: 0.1

Cn1c(=O)c2c(nc3n(CCCCN4CCN(c5ccc(Cl)cc5)CC4)c(=O)ccn23)n(C)c1=O
Ki [1]: 58 nM
Ki [2]: 61 nM
Ki [3]: 68 nM
Activity [4]: 52%
Ki [5]: 86 nM
Activity [6]: 96%

Cn1c(=O)c2c(nc3n(CCCCCN4CCN(c5ccc(Cl)c(Cl)c5)CC4)c(=O)ccn23)n(C)c1=O
Activity [7]: 86%
Activity [8]: 100%
Activity [4]: 61%
Activity [9]: 52%
Activity [10]: 79%
Activity [6]: 96%

Cn1c(=O)c2c(nc3n(CCCCCN4CCN(c5ccccc5O)CC4)c(=O)ccn23)n(C)c1=O
Ki [1]: 2 nM
Ki [2]: 473 nM
Ki [3]: 340 nM
Activity [4]: 46%
Ki [5]: > 1000 nM
Activity [6]: 67%

Cn1c(=O)c2c(nc3n(CCCCCN4CCN(c5ccccc5O)CC4)ccn23)n(C)c1=O
Ki [1]: 7 nM
Activity [7]: 57%
Activity [8]: 76%
Ki [2]: 230 nM
Ki [3]: 265 nM
Activity [4]: 3%
Activity [9]: 0%
Activity [10]: 67%
Activity [6]: 69%
Ratio Ki [11]: 0.03

Cn1c(=O)c2c(nc3n(CCCCN4CCN(c5ccc(Cl)c(Cl)c5)CC4)c(=O)ccn23)n(C)c1=O
Activity [7]: 97%
Activity [8]: 100%
Activity [4]: 98%
Activity [9]: 84%
Activity [10]: 67%
Activity [6]: 99%

Cn1c(=O)c2c(nc3n(CCCCN4CCN(c5ccc(Cl)cc5)CC4)c(-c4ccccc4)cn23)n(C)c1=O
Ki [1]: 46 nM
Ki [2]: 37 nM
Ki [3]: 23 nM
Ki [5]: 447 nM
Ratio Ki [11]: 1.2

Cc1cn2c3c(=O)n(C)c(=O)n(C)c3nc2n1CCCCN1CCN(c2ccccc2O)CC1
Ki [1]: 2 nM
Activity [7]: 44%
Activity [8]: 90%
Ki [2]: 510 nM
Ki [3]: 430 nM
Activity [4]: 67%
Activity [9]: 8%
Activity [10]: 90%
Activity [6]: 86%
Ratio Ki [11]: 0.003

CSc1ccc2c(c1)C(N1CCN(C)CC1)Cc1ccccc1S2 (stereo not given)
Activity [8]: 3%
Activity [10]: 1%

CN1C(=O)CN=C(c2ccccc2)c2cc(Cl)ccc21 [DIAZEPAM]
Activity [12]: 52%
Activity [13]: 57%

Cn1c(=O)c2c(nc3n(CCCCN4CCN(c5ccccc5O)CC4)ccn23)n(C)c1=O
Ki [1]: 2 nM
Activity [7]: 40%
Activity [8]: 99%
Ki [2]: 1360 nM
Ki [3]: 700 nM
Activity [4]: 69%
Activity [9]: 7%
Activity [10]: 90%
Activity [6]: 67%
Ratio Ki [11]: 0.002

Cn1c(=O)c2c(nc3n(CCCCN4CCN(c5ccc(Cl)c(Cl)c5)CC4)ccn23)n(C)c1=O
Activity [7]: 51%
Activity [8]: 91%
Activity [4]: 0%
Activity [9]: 9%
Activity [10]: 67%
Activity [6]: 31%

Cn1c(=O)c2c(nc3n(CCCCN4CCN(c5ccccc5O)CC4)c(=O)ccn23)n(C)c1=O
Activity [7]: 97%
Activity [8]: 100%
Activity [4]: 26%
Activity [9]: 79%
Activity [10]: 100%
Activity [6]: 84%

Cc1cccc(N2CCN(CCCCCn3c(=O)ccn4c5c(=O)n(C)c(=O)n(C)c5nc34)CC2)c1C
Activity [7]: 88%
Activity [8]: 85%
Activity [4]: 67%
Activity [9]: 50%
Activity [10]: 59%
Activity [6]: 83%

Cc1cc2c(s1)Nc1ccccc1N=C2N1CCN(C)CC1
Activity [4]: 10%
Activity [6]: 24%

Cc1cccc(N2CCN(CCCCn3ccn4c5c(=O)n(C)c(=O)n(C)c5nc34)CC2)c1C
Activity [7]: 48%
Activity [8]: 91%
Activity [4]: 13%
Activity [9]: 9%
Activity [10]: 62%
Activity [6]: 47%

Cn1c(=O)c2c(nc3n(CCCCCN4CCN(c5ccc(Cl)cc5)CC4)ccn23)n(C)c1=O
Ki [1]: 73 nM
Ki [2]: 3640 nM
Ki [3]: 259 nM
Ki [5]: 1590 nM
Ratio Ki [11]: 0.02

Cc1cn2c3c(=O)n(C)c(=O)n(C)c3nc2n1CCCCCN1CCN(c2ccc(Cl)cc2)CC1
Ki [1]: 62 nM
Ki [2]: 691 nM
Ki [3]: 106 nM
Ki [5]: 837 nM
Ratio Ki [11]: 0.09

CC[C@@H](CO)NC(=O)[C@@H]1C=C2c3cccc4c3c(cn4C)C[C@H]2N(C)C1
Activity [7]: 18%
Activity [9]: 11%

Cc1cn2c3c(=O)n(C)c(=O)n(C)c3nc2n1CCCCCN1CCN(c2ccccc2O)CC1
Ki [1]: 12 nM
Activity [7]: 52%
Activity [8]: 84%
Ki [2]: 124 nM
Ki [3]: 468 nM
Activity [4]: 71%
Activity [9]: 0%
Activity [10]: 77%
Activity [6]: 85%
Ratio Ki [11]: 0.1

Cc1cn2c3c(=O)n(C)c(=O)n(C)c3nc2n1CCCCN1CCN(c2ccc(Cl)c(Cl)c2)CC1
Activity [7]: 74%
Activity [8]: 110%
Activity [4]: 64%
Activity [9]: 13%
Activity [10]: 46%
Activity [6]: 90%
